The values that follow come from ChEMBL document CHEMBL1149418, “Intermolecular interactions in the crystal structures of potential HIV-1 integrase inhibitors” (Bioorg Med Chem Lett, 2006).

Chain of Human immunodeficiency virus type 1 integrase (Q7ZJM1 whole entry): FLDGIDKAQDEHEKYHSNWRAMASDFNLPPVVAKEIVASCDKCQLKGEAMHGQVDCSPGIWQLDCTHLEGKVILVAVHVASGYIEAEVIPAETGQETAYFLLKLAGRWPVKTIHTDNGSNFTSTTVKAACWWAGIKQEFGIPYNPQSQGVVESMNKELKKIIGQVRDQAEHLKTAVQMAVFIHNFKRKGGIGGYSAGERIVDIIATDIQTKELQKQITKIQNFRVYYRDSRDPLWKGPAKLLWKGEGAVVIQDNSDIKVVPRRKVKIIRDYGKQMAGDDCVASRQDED

This experiment has as its target Human immunodeficiency virus type 1 integrase (Human immunodeficiency virus 1, UniProt Q7ZJM1). The experiment in a line: Antiviral activity against HIV1 integrase.
`COC(Nc1cc(Cl)c([N+](=O)[O-])cc1Cl)c1ccc2cccc(O)c2n1` (centres undefined) showed an IC50 of 230 µM.

Consider `Oc1cccc2ccc(/C=C/c3cccc(Cl)c3)nc12`, for which the IC50 is 230 µM. In the case of `Cc1ccc2c(N=O)ccc(O)c2n1` it was above 333 µM. With `O=C(O)c1ccc2ccc(/C=C/c3cccc(Cl)c3)nc2c1`, 230 µM corresponded to half-maximal inhibition (IC50).

What is called IC50 is the concentration that gives 50% inhibition. Read a high IC50 as weaker potency.
